Experimental data reported in patent publication US20220386582A1, “METHOD AND DEVICE TO TRAP ACARIDS” (DOMOBIOS, priority 2015, published 2022).

Key:
Format in all cases: in vivo
Tyrophagus putrescentiae [1] = experiment: Toxicity, indirect contact (inhalation, 24 hours)
Procedure: (§1) FIG. 10 is a set of graphs showing the percentage of dead mites after 24 hours of inhalation of lavandulol at different concentrations (0.18 μL, 3 μL or 8 μL of pure solution) or water (Ctrl). Four species of mites were tested: Dermatophagoides pteronyssinus (DP), Dermatophagoides farinae (DF), Tyrophagus putrescentiae (TP) and Acarus siro (AS).
(§2) The species studied were two species of dust common in mattresses in Eurasia (Dermatophagoides pteronyssinus and Dermatophagoides farinae), and two species of stored food mites common in Eurasia (Tyrophagus putrescentiae and Acarus siro). These four species were reared under defined conditions (20° C. and 75% relative humidity). The house dust mites were fed with human flakes (skin and whiskers obtained by cleaning electric shavers) and stored food mites were fed with fish food. The experiments were performed at 20° C. and 40% relative humidity.
(§3) For each of the four species, a group of a mites (10<n<25) was placed in a Petri dish (diameter 5.5 cm). This dish was then recovered by a filter paper that enabled gas-exchange and placed into another dish (diameter 9 cm), in which was placed a piece of paper filter (5×1 cm) impregnated with lavandulol at various concentration (0.18 μL, 3 μL, or 8 μL of pure solution, corresponding respectively to 0.15 mg, 2.5 mg or 6.67 mg of lavandulol), or with water. The bigger of the two dishes was then covered.
(§4) After 24 hours, the number of dead mites were counted. The death of a mite was determined by reaction to a stimulation with a needle: lack of reaction and the persistence of immobility indicated death. This experiment was repeated three times with the four species.
(§5) Observations and counting of mites were made under binocular microscope (magnification 10×). The set-up is illuminated with a cold lamp (KL 1500 LCD, Schott ●), the lighting is symmetric and the light intensity was 50Klux. The experimental conditions were controlled in the room (T° C.: 19-22° C. and RH 40%).

Acarus siro [2] = experiment: Toxicity, indirect contact (inhalation, 24 hours)
Procedure: as §1, §2, §3, §4, §5

Dermatophagoides farinae = experiment: Toxicity, indirect contact (inhalation, 24 hours)
Procedure: as §1, §2, §3, §4, §5

[3] = system: Dermatophagoides pteronyssinus; experiment: Toxicity, indirect contact (inhalation, 24 hours)
Procedure: as §1, §2, §3, §4, §5

mites = experiment: Short (5 minutes) exposure without drying time on consecutive days (FIG. 9); details: lavandulol diluted at 10^−6, 5 minutes exposure, no drying time; first day of treatment
Procedure: FIG. 9 is a graph representing the attracting efficiency of a 5 minutes time exposure of a composition comprising lavandulol diluted at 10^−6. The graph represents the percentage of mites trapped by a fabric sprayed with compositions, as a function of the days of exposure to the attracting composition. Similar experiments were performed to determine attractiveness of mites when an attracting solution comprising one or more attractive agents is exposed during a short time without drying time.

Tyrophagus putrescentiae [4] = experiment: Binary choice test in Petri dish, felt with lavandulol composition versus felt with water
Procedure: (§6) A group of mites (20<n<40) was placed in the center of a Petri dish (diameter 5.5 cm) around which two felt pieces (density of 70 mg/cm^2, thickness of 2 mm) were placed equidistant. The first felt piece was impregnated with water and the other felt piece was impregnated with the lavandulol composition at different dilutions. The diluted lavandulol solutions were prepared from a 90-95% pure lavandulol stock solution (Phytolab, catalog No. 80887). Mites moved spontaneously towards one of the two felt pieces. The number of mites migrating to one side or to the other side was counted and this distribution was compared to a situation where mites were placed in a Petri dish containing two felt pieces impregnated with water. Observations, counting, and identification of mites' species were performed under binocular microscope (magnification 10×). The set-up is illuminated with a cold lamp (KL 1500 LCD, Schott ●), the lighting is symmetric and the light intensity was 50Klux. The experimental conditions were controlled in the room (T° C.: 19-22° C. and RH 40%).

Acarus siro [5] = experiment: as above
Procedure: as §6

[6] = pure lavandulol volumes of 3 μL and 8 μL
[7] = at least at a dilution of 10^−3, even more at least at 10^−6

## C=C(C)C(CO)CC=C(C)C (stereo not drawn) [Lavandulol, 5-Methyl-2-prop-1-en-2-ylhex-4-en-1-ol]
Tyrophagus putrescentiae [1]; lavandulol volume of 0.18 μL
  mortality of mites by inhalation: not lethal
Tyrophagus putrescentiae [1]; [6]
  mortality of mites by inhalation: high mortality
Acarus siro [2]; lavandulol volume of 0.18 μL
  mortality of mites by inhalation: not lethal
Acarus siro [2]; [6]
  mortality of mites by inhalation: high mortality
Dermatophagoides farinae; lavandulol volume of 0.18 μL
  mortality of mites by inhalation: not lethal
Dermatophagoides farinae; [6]
  mortality of mites by inhalation: high mortality
[3]; lavandulol volume of 0.18 μL
  mortality of mites by inhalation: not lethal
[3]; [6]
  mortality of mites by inhalation: high mortality
mites
  percentage of mites attracted in the sheet: very high
Tyrophagus putrescentiae [4]; Dilution 10^−3
  Number of mites on the felt piece impregnated with the lavandulol composition: 34%
Tyrophagus putrescentiae [4]; Dilution 10^−6
  Number of mites on the felt piece impregnated with the lavandulol composition: 44%
Tyrophagus putrescentiae [4]; Dilution 10^−7
  Number of mites on the felt piece impregnated with the lavandulol composition: 48%
Tyrophagus putrescentiae [4]; Dilution 10^−9
  Number of mites on the felt piece impregnated with the lavandulol composition: 38%
Tyrophagus putrescentiae [4]; Dilution 10^−12
  Number of mites on the felt piece impregnated with the lavandulol composition: 47%
Tyrophagus putrescentiae [4]; Dilution 10^−13
  Number of mites on the felt piece impregnated with the lavandulol composition: 49%
Tyrophagus putrescentiae [4]; Dilution 10^−14
  Number of mites on the felt piece impregnated with the lavandulol composition: 69%
Tyrophagus putrescentiae [4]; Dilution 10^−15
  Number of mites on the felt piece impregnated with the lavandulol composition: 63%
Tyrophagus putrescentiae [4]; Dilution 10^−16
  Number of mites on the felt piece impregnated with the lavandulol composition: 60%
Tyrophagus putrescentiae [4]; Dilution Undiluted
  Number of mites on the felt piece impregnated with the lavandulol composition: 2%
Tyrophagus putrescentiae [4]; [7]
  attraction of mites (in words): efficiently attracts mites
Tyrophagus putrescentiae [4]; undiluted solution
  attraction of mites (in words): fails to attract mites
Acarus siro [5]; Dilution 10^−3
  Number of mites on the felt piece impregnated with the lavandulol composition: 44%
Acarus siro [5]; Dilution 10^−6
  Number of mites on the felt piece impregnated with the lavandulol composition: 48%
Acarus siro [5]; Dilution 10^−9
  Number of mites on the felt piece impregnated with the lavandulol composition: 40%
Acarus siro [5]; Dilution 10^−12
  Number of mites on the felt piece impregnated with the lavandulol composition: 55%
Acarus siro [5]; Dilution 10^−14
  Number of mites on the felt piece impregnated with the lavandulol composition: 54%
Acarus siro [5]; Dilution 10^−16
  Number of mites on the felt piece impregnated with the lavandulol composition: 50%
Acarus siro [5]; Dilution Undiluted
  Number of mites on the felt piece impregnated with the lavandulol composition: 1.1%
Acarus siro [5]; [7]
  attraction of mites (in words): efficiently attracts mites
Acarus siro [5]; undiluted solution
  attraction of mites (in words): fails to attract mites
